Data as given in article PMC10994559 (PLOS Neglected Tropical Diseases, 2024).
Values joined by “and” are separate entries in the source; they are usually repeats but may differ in a detail not shown here. Equal values may be shown once. “Also recorded” adds a separate entry of the source. Read-outs that look alike come from different tables or passages of the source.

Assays:
[1] = Body weight and tolerability during treatment in the mouse model; format: in vivo, Balb/c mice; conditions: for Body weight during treatment course: PHT-39 13.75 mg/kg i.p. or s.c., AmB 8 mg/kg i.p., vs DMSO
Experimental: (§1) L. major metacyclic promastigotes were prepared from a five day stationary phase culture through Ficoll gradient centrifugation according to previous studies with minor changes: Briefly, a 20% and 10% Ficoll gradient were prepared in PBS and M199 media, respectively and placed in a 14 ml falcon tube. Then, 1x10^9 L. major promastigotes were loaded on top of gradient and centrifuged. Metacyclic parasites were collected between two layers. Four groups of mice (n = 6) were challenged by subcutaneous injection of 2x10^6 stationary phase metacyclic promastigotes (50 μl in PBS) into the left hind footpad. Two weeks after infectious challenge, animals were treated by i.p or intralesional (s.c) PHT-39 injection (13.75 mg/kg body weight), daily or every other day, respectively, for ten days. AmB (8 mg/kg body weight) was applied as positive control drug (i.p injection for ten days) and 5% DMSO in distilled water was applied as negative control (s.c injection for ten days) (Table 1).
(§2) Every four days after the challenge, body weight was monitored and footpad swelling changes were measured (Footpad swelling = (height + width)/2) with a metric caliper (Kroeplin, IP65, D-series, external measuring gauge).

[2] = Cytotoxicity assay J774, resazurin reduction; format: cell-based, murine; conditions: mouse, J774 macrophage cells, cytotoxicity, 72 h; for viability at 72 h, 2.5 µM: read-out: Residual viability, J774 (2.5 µM); for viability at 72 h, 25 µM: read-out: Residual viability, J774 (25 µM)
How it was run: (§3)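 J774 and HepG2 cells were seeded at 0.5x10^5 cell/well and exposed to serially diluted compounds for 72 h at 37°C, 5% CO2. Viability was read by fluorescence resazurin reduction (λEx 550 nm, λEm 590 nm).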

[3] = system: Murine macrophage cells (J774); assay: Cytotoxicity assay J774, resazurin reduction; format: cell-based; conditions: cytotoxicity, 72 h
How it was run: as §3

[4] = system: L. infantum promastigotes; assay: L. infantum promastigote viability, resazurin reduction; format: cell-based, Leishmania infantum; conditions: Leishmania infantum, 72 h; for viability at 2.5 µM: read-out: Residual viability, L. infantum promastigote (2.5 µM); for viability at 25 µM: read-out: Residual viability, L. infantum promastigote (25 µM)
Excerpt: (§4) The infectivity of the parasites was boosted by passaging in Balb/c mice and culturing the infected lymph nodes after six weeks. L. infantum (MHOM / BR / 76 / M4192) parasite was passaged in the same media formulation with 0.5% urine.

[5] = system: intracellular L. infantum amastigotes; assay: Parasite rescue assay (intramacrophage, J774 infected with L. infantum); format: cell-based, Leishmania infantum
L. major promastigotes = assay: L. major promastigote viability, resazurin reduction; format: cell-based, Leishmania major; conditions: Leishmania major; for EC50: dose response, triplicate
Excerpt: as §4

T. cruzi trypomastigotes = assay: T. cruzi viability, resazurin reduction; format: cell-based, Trypanosoma cruzi; conditions: 72 h; for viability at 2.5 µM / viability at 25 µM: Trypanosoma cruzi; for viability at 2.5 µM: read-out: Residual viability, T.cruzi (2.5 µM), 2.5 µM, 72 h; for viability at 25 µM: read-out: Residual viability, T.cruzi (25 µM), 25 µM, 72 h
How it was run: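 Y-strain trypomastigotes kept in supplemented liver infusion tryptose broth with 10% FCS, pH 7.2, at 28°C. Viability by fluorescence resazurin reduction; single-point screen at 2.5 μM, then 18-concentration dose response. Amphotericin B as control drug.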

L. major = assay: Cutaneous leishmaniasis mouse model: lymph node parasite burden (qPCR) and footpad swelling; format: in vivo, Balb/c mice; conditions: for Parasite load in popliteal lymph nodes (qPCR kDNA) vs DMSO control: PHT-39 13.75 mg/kg i.p. daily or s.c. every other day; for Parasite load in popliteal lymph nodes (qPCR kDNA) vs DMSO control / Footpad swelling vs DMSO control: AmB 8 mg/kg i.p.; for Footpad swelling vs DMSO control: day 21 post challenge
Experimental: Female Balb/c mice, aged 6–8 weeks, were purchased from the breeding stock in Czech Republic (Animalab, Czech Republic). Animals were kept under standard conditions according to European ethical guidelines for experimental animals.
as §1, §2
After the 10 days course of treatment all animals were sacrificed, and popliteal lymph nodes of each infected footpad were collected for parasite load determination. Genomic DNA was extracted from the lymph nodes (DNeasy Blood and Tissue kit, Qiagen). Equal concentration of samples (125 ng) was applied to quantify leishmania kDNA with primers RV1(forward: 5’-[…]-3’) and RV2 (reverse: 5’-CCACCTG […]-3’). qPCR data was normalized using the murine house-keeping gene GAPDH amplified with primers (forward:5’[…]3’; reverse: 5’[…]3’) in parallel using Maxima SYBR green qPCR master (Thermo). qPCR was performed using Biorad CFX96 device with 95°C/ 10 min (initial denaturation), then 95°C/15s (denaturation), 60°C /30s (annealing) and 72°C/ 40s (extension) over 40 cycles. For ΔCT calculation of samples, every CT were subtracted from the same on GAPDH. Then, ΔΔCT of each group was normalized according to negative control group (DMSO).
The most significant requirement of an anti-leishmanial drug is its ability to reduce the parasite burden in the infected host. […] Briefly, four groups of 6–8 weeks Balb/c mice were challenged with 2 x 10^6 L. major promastigotes subcutaneously injected into the hind footpad. Treatment started after two weeks when a wound started to form. Two groups were treated with PHT-39 compound at doses of 13.75 mg/kg either via i.p route, daily, or s.c route, every other day for 10 days. One group received a daily dosage of AmB as a control, and another infected non-treated group was included in the study. After 10 days, popliteal lymph nodes were collected to assess parasite burden and immune response stimulation was studied in spleen cell culture supernatants.

[6] = Leishmania infantum, J774, read-out: EC50 L. infantum rescue assay, intramacrophage (J774), 18 concentrations
[7] = PHT-39 13.75 mg/kg i.p. or s.c.

**Q.** Which results are given for `C[C@@H]1[C@H](O)[C@@H](C)/C=C/C=C/C=C/C=C/C=C/C=C/C=C/[C@H](O[C@@H]2O[C@H](C)[C@@H](O)[C@H](N)[C@@H]2O)C[C@@H]2O[C@](O)(C[C@@H](O)C[C@@H](O)[C@H](O)CC[C@@H](O)C[C@@H](O)CC(=O)O[C@H]1C)C[C@H](O)[C@H]2C(=O)O` [AmB, amphotericin B, reference compound]?
**A.** Body weight during treatment course [1]: significant differences with other groups; viability at 72 h, 2.5 µM [2]: 101 ± 11.8%; viability at 72 h, 25 µM [2]: 57.73 ± 0.52%; EC50 ([3]; Mus musculus, J774, 72 h): > 10000 nM; EC50 [3]: > 16000 nM; viability at 2.5 µM [4]: 2.55 ± 0.17%; viability at 25 µM [4]: 5.4 ± 0.73%; EC50 [5, 6]: 600 nM; viability at 25 µM ([5]; Leishmania infantum, J774, read-out: Residual viability, intracellular L. infantum amastigote (25 µM)): 15.4 ± 6.9%; EC50 ([5]; read-out: EC50 L. infantum rescue assay, intramacrophage (J774), 18 concentrations): 700 nM and 660 nM; EC50 (L. major promastigotes): 200 nM; Residual viability, T.cruzi (25 µM) (T. cruzi trypomastigotes; 25 µM): 7.37±1.09%; viability at 2.5 µM (T. cruzi trypomastigotes): 8.07 ± 0.38%; viability at 25 µM (T. cruzi trypomastigotes): 7.4%; Parasite load in popliteal lymph nodes (qPCR kDNA) vs DMSO control (L. major; 10 days): reduce the parasite load significantly; also recorded: reduction of parasite load in the AmB group was significant; Footpad swelling vs DMSO control (L. major; [7]): reduced significantly; also recorded: effectively reduced the swelling

**Q.** With `CC[C@@H](C)[C@H](c1nc2ccccc2n1Cc1cn(-c2ccc(C(F)(F)F)cc2)nn1)N1C(=O)c2ccccc2C1=O` [PHT-39] as the compound, how does the “Body weight during treatment course” value [1] read?
**A.** did not affect the body weight

**Q.** And the “Compound related toxicity in mice” value ([1]; intraperitoneal or subcutaneous injection for 10 and 5 days)?
**A.** did not expose any compound related toxicity

**Q.** What about the viability at 72 h, 2.5 µM [2] of the same compound?
**A.** 98.3 ± 2.92%

**Q.** And the viability at 72 h, 25 µM [2]?
**A.** 68 ± 9.09%

**Q.** And the EC50 ([3]; Mus musculus, J774, 72 h)?
**A.** > 16000 nM

**Q.** What about the viability at 2.5 µM [4] of the same compound?
**A.** 58.8 ± 1.22%

**Q.** What about the viability at 25 µM [4] of the same compound?
**A.** 7.71 ± 1.03%

**Q.** And the EC50 [5, 6]?
**A.** 1200 ± 3200 nM

**Q.** And the viability at 25 µM ([5]; Leishmania infantum, J774, rescue assay in J774, 25 µM, read-out: Residual viability, intracellular L. infantum amastigote (25 µM))?
**A.** 16.3%

**Q.** What about the EC50 ([5]; read-out: EC50 L. infantum rescue assay, intramacrophage (J774), 18 concentrations, listed as PH-39) of the same compound?
**A.** 1210 ± 3200 nM

**Q.** And the “Residual viability, intracellular L. infantum amastigote (25 µM)” value ([5]; rescue assay in J774, 25 µM, 25 µM)?
**A.** 16.34±4.67%

**Q.** And the viability at 25 µM (L. major promastigotes; 72 h, read-out: Residual viability, L.major promastigote (25 µM))?
**A.** 16.6 ± 1.6%

**Q.** And the EC50 (L. major promastigotes)?
**A.** 5900 ± 1800 nM

**Q.** What about the viability at 2.5 µM (T. cruzi trypomastigotes) of the same compound?
**A.** 57.6 ± 1.04%

**Q.** What about the viability at 25 µM (T. cruzi trypomastigotes) of the same compound?
**A.** 31.5 ± 1.51%

**Q.** What about the “Parasite load in popliteal lymph nodes (qPCR kDNA) vs DMSO control” value (L. major; 10 days) of the same compound?
**A.** did not show a significant difference; also recorded: not significantly changed

**Q.** And the “Elimination of L. major infection in cutaneous leishmaniasis model” value (L. major; PHT-39 13.75 mg/kg i.p. or s.c., 10 days, 13.75 mg/kg)?
**A.** unable to eradicate L. major infection; also recorded: failed to eliminate the Leishmania infection

**Q.** What about the “Parasite burden in lymph nodes” value (L. major; PHT-39 13.75 mg/kg s.c. every other day) of the same compound?
**A.** lower but insignificant parasite burden

**Q.** What about the “Footpad swelling vs DMSO control” value (L. major; [7]) of the same compound?
**A.** Neither of the test groups showed significant difference with the DMSO control; also recorded: did not show any significant changes
